We go through ten molecules from article PMC6436534 (Chemistry (Weinheim an der Bergstrasse, Germany), 2019).

Converted amounts (≈) assume the structure as drawn. Like-named read-outs stand apart in the source and are kept apart here.

The conditions of data set [1]: for half-life: human liver microsomes, standard 60 min incubation; for metabolites observed by LC-MS: stored human liver microsomal incubates.
Data set [2] relates to vitamin K epoxide reductase (VKOR). Kind of data set: VKOR inhibition in FIXgla-PC/HEK293 reporter cells. Particulars: relative to (R)-enantiomer of cubane analogue.
For data set [3] the following is noted: clinically relevant warfarin analogue; cited from earlier work.
Data set [4] in a line: Chemical stability on storage. The format is physicochemical. The conditions noted are these: stored at 8 °C for approximately two years, 1H NMR analysis.
For data set [5] the following is noted: traditional octanol water partition coefficient determination.
The subject of a further data set is adult male C57BL6/J mice. Kind of data set: Open field test. The data set is classed as in vivo. The conditions noted are these: OFT, compared to vehicle (water).
The next data set has as its system mouse. The conditions noted are these: earlier in vivo mouse studies; cited from earlier work.
Data set [6] relates to melanoma (MM96L) cell line. Kind of data set: Activity against melanoma cell line. The format is cell-based.
The test system of data set [7] is breast cancer (MCF7) cell line. Description: Activity against breast cancer cell line. The format is cell-based. The conditions noted are these: for IC50: MCF7 breast cancer cell line.
The subject of a further data set is scabies mites. Description: Scabies mite mortality. Particulars: at 8 h; same concentration as benzyl benzoate.

Regarding `CC(=O)C[C@H](C1=CC=CC=CC=C1)c1c(O)c2ccccc2oc1=O` [(R)-COT], in data set [1], the half-life was determined as 2.17 ± 0.333 h and the “metabolites observed by LC-MS” value was “significant quantities of an M+2 metabolite”.

As to `CC(=O)C[C@@H](C1=CC=CC=CC=C1)c1c(O)c2ccccc2oc1=O` [(S)-COT], in data set [1], the half-life was determined as 1.83 ± 0.633 h and the “metabolites observed by LC-MS” value was “substantial peaks exhibiting an M+16”.

Turning to `CC(=O)CC(c1c(O)c2ccccc2oc1=O)C12C3C4C5C3C1C5C42` [(S)-cubane analogue], in data set [2], the “VKOR inhibition, fold lower activity than the (R)-enantiomer” value is given as “ca. 3 fold”.

Take `CC(=O)CC(c1ccc([N+](=O)[O-])cc1)c1c(O)c2ccccc2oc1=O` (stereo not shown) [acenocoumarol]: the half-life in data set [3] is on record as 10 h.

For `CC1(O)CC(C2=CC=CC=CC=C2)c2c(c3ccccc3oc2=O)O1` (stereo not shown) [compound 8, COT-warfarin], the chemical stability result in [4] was “no signs of decomposition”. Further, in data set [5], the “log P” value was found to be 2.82.

As for `O=C(NCCN1CCOCC1)c1ccc(Cl)cc1` [compound 9, moclobemide], the “locomotor profile / total distance travelled” value in the data set on adult male C57BL6/J mice is reported as “decrease the total distance travelled by the same amount compared to the vehicle”.

`O=C(CCCCCCC(=O)Nc1ccccc1)NO` [compound 11, suberanilohydroxamic acid, reference compound]: the in vivo activity result in the data set on mouse is reported as “identical activity”. Moreover, the “log P” value in [5] came to 0.99.

With `O=C(CCCCCCC(=O)NC12C3C4C5C3C1C5C42)NO` (stereo not shown) [compound 16], the values for the IC50 in [6] and in data set [7] were 0.137 ± 0.005 µg/mL (≈ 0.472 µM) and 0.053 ± 0.004 µg/mL (≈ 0.183 µM), respectively. In addition, the in vivo activity entry in the data set on mouse is “identical activity”. Besides, in data set [5], the “log P” value worked out at 1.52.

Turning to `O=C(CCCCCCC(=O)NC1=CC=CC=CC=C1)NO` [compound 23], the IC50 came to 0.073 ± 0.008 µg/mL (≈ 0.251 µM) in data set [6] and 0.037 ± 0.003 µg/mL (≈ 0.127 µM) in [7]. In data set [5], the “log P” value is 1.38. For the same molecule, in data set [7] (MCF7 and MM96L cell lines, relative to SAHA), the “fold less active than SAHA” value is listed as “ca. 2 fold”. For the same molecule, in [7] (MCF7 and MM96L cell lines, relative to cubane derivative 16), the “fold more active than 16” value is “ca. 2 fold”.

For the molecule `O=C(OCc1ccccc1)C1=CC=CC=CC=C1` [compound 26], the mite mortality in the data set with scabies mites came to 75%. Further, in data set [5], the “log P” value came to 3.34.
